Data on two compounds can be found in US20140031217A1, “HERBICIDAL COMPOSITIONS COMPRISING 4-AMINO-3-CHLORO-5-FLUORO-6-(4-CHLORO-2-FLUORO-3-METHOXYPHENYL)PYRIDINE-2-CARBOXYLIC ACID OR A DERIVATIVE THEREOF AND AUXIN TRANSPORT INHIBITORS” (DOW AGROSCIENCES LLC, priority 2012, published 2014).

The subject of assay [1] is LEFCH. The experiment in a line: Postemergence foliar-applied greenhouse weed control, LEFCH. The assay is classed as in vivo, Leptochloa chinensis (L.) Nees. From the text:
(§1) Seeds or nutlets of the desired test plant species were planted in a soil matrix prepared by mixing a loam or sandy loam soil (e.g., 28.6 percent silt, 18.8 percent clay, and 52.6 percent sand, with a pH of about 5.8 and an organic matter content of about 1.8 percent) and calcareous grit in an 80 to 20 ratio. The soil matrix was contained in plastic pots with a volume of 1 quart and a surface area of 83.6 square centimeters (cm^2). When required to ensure good germination and healthy plants, a fungicide treatment and/or other chemical or physical treatment was applied. The plants were grown for 8-22 days in a greenhouse with an approximate 14 h photoperiod which was maintained at about 29° C. during the day and 26° C. during the night. Nutrients (Peters Excel® 15-5-15 5-Ca 2-Mg and iron chelate) were applied in the irrigation solution as needed and water was added on a regular basis. Supplemental lighting was provided with overhead metal halide 1000-Watt lamps as necessary. The plants were employed for testing when they reached the first through fourth true leaf stage.
(§2) Treatments consisted of the acid or esters of 4-amino-3-chloro-5-fluoro-6-(4-chloro-2-fluoro-3-methoxy-phenyl) pyridine-2-carboxylic acid (Compound A), each formulated as an SC (suspension concentrate), and various herbicidal components alone and in combination. Forms of compound A were applied on an acid equivalent basis.
(§3) Other herbicidal components were applied on an active ingredient basis and included auxin transport inhibiting (ATI) herbicides chlorflurenol (technical material), chlorflurenol-methyl (technical material), diflufenzopyr (technical material), diflufenzopyr sodium (technical material), flurenol-methyl (technical material) and naptalam (technical material).
(§4) Treatment requirements were calculated based upon the rates being tested, the concentration of active ingredient or acid equivalent in the formulation, and a 12 mL application volume at a rate of 187 L/ha.
(§5) For treatments comprised of formulated and technical compounds, weighed amounts of the technical materials were placed individually in 25 mL glass vials and dissolved in a volume of 97:3 v/v acetone/DMSO to obtain 12× stock solutions, and measured amounts of the formulated compounds were placed individually in 25 mL glass vials and diluted in a volume of 1.5% (v/v) crop oil concentrate or water to obtain 12× stock solutions. […] Application solutions were prepared by adding an appropriate amount of each stock solution (e.g., 1 mL) and diluted to the appropriate final concentrations with the addition of an appropriate amount of an aqueous mixture of 1.5% (v/v) crop oil concentrate so that the final spray solutions contained 1.25% (v/v) crop oil concentrate. When required, additional water and/or 97:3 v/v acetone/DMSO was added to individual application solutions so that the final acetone and DMSO concentrations of the application solutions being compared were 8.1% and 0.25%, respectively.
(§6) All stock solutions and applications solutions were visually inspected for compound compatibility prior to application. Spray solutions were applied to the plant material with an overhead Mandel track sprayer equipped with an 8002E nozzle calibrated to deliver 187 L/ha over an application area of 0.503 m^2 at a spray height of 18 to 20 inches (46 to 50 cm) above average plant canopy height. Control plants were sprayed in the same manner with the solvent blank.
(§7) The treated plants and control plants were placed in a greenhouse as described above and watered by sub-irrigation to prevent wash-off of the test compounds. After approximately 3 weeks, the condition of the test plants as compared with that of the untreated plants was determined visually and scored on a scale of 0 to 100 percent where 0 corresponds to no injury or growth inhibition and 100 corresponds to complete kill. […]

Assay [2] has as its system ECHCG. Description: In-water applied (paddy) greenhouse weed control, ECHCG. As to conditions: 20 DAA. The class given is in vivo, Echinochloa crusgalli (L.) Beauv. Here is the method: (§8) Weed seeds or nutlets of the desired test plant species were planted in puddled soil (mud) prepared by mixing a shredded, non-sterilized mineral soil (50.5 percent silt, 25.5 percent clay, and 24 percent sand, with a pH of about 7.6 and an organic matter content of about 2.9 percent) and water at a 1:1 volumetric ratio. The prepared mud was dispensed in 365 mL aliquots into 16-ounce (oz.) non-perforated plastic pots with a surface area of 86.59 square centimeters (cm^2) leaving a headspace of 3 centimeters (cm) in each pot. Mud was allowed to dry overnight prior to planting or transplanting. Rice seeds were planted in Sun Gro MetroMix® 306 planting mixture, which typically has a pH of 6.0 to 6.8 and an organic matter content of about 30 percent, in plastic plug trays. Seedlings at the second or third leaf stage of growth were transplanted into 840 mL of mud contained in 32-oz. non-perforated plastic pots with a surface area of 86.59 cm^2 4 days prior to herbicide application. The paddy was created by filling the headspace of the pots with 2.5 to 3 cm of water. When required to ensure good germination and healthy plants, a fungicide treatment and/or other chemical or physical treatment was applied. The plants were grown for 4-22 days in a greenhouse with an approximate 14 h photoperiod which was maintained at about 29′C during the day and 26° C. during the night. Nutrients were added as Osmocote® (19:6:12, N:P:K+minor nutrients) at 2 g per 16-oz. pot and 4 g per 960-mL 32-oz. pot. Water was added on a regular basis to maintain the paddy flood, and supplemental lighting was provided with overhead metal halide 1000-Watt lamps as necessary. The plants were employed for testing when they reached the second or third true leaf stage.
(§9) Treatments consisted of the acid or esters of 4-amino-3-chloro-5-fluoro-6-(4-chloro-2-fluoro-3-methoxy-phenyl)pyridine-2-carboxylic acid (compound A) each formulated as an SC and various herbicidal components alone and in combination. Forms of compound A were applied on an acid equivalent basis.
(§10) Other herbicidal components were applied on an active ingredient basis and included auxin transport inhibiting (ATI) herbicides chlorflurenol-methyl (technical material), chlorflurenol (technical material), diflufenzopyr (technical material), dilfufenzopyr sodium (technical material), flurenol-methyl (technical material,) and naptalam (technical material).
(§11) Treatment requirements for each compound or herbicidal component were calculated based upon the rates being tested, the concentration of active ingredient or acid equivalent in the formulation, an application volume of 2 mL per component per pot, and an application area of 86.59 cm^2 per pot.
(§12) For formulated compounds, a measured amount was placed in an individual 100 or 200 mL glass vial and was dissolved in a volume of 1.25% (v/v) Agri-Dex® crop oil concentrate to obtain application solutions.
(§13) For technical grade compounds, a weighed amount was placed in an individual 100 to 200 mL glass vial and was dissolved in a volume of acetone to obtain concentrated stock solutions. […] The concentrated stock solutions obtained were diluted with an equivalent volume of an aqueous mixture containing 2.5% (v/v) crop oil concentrate so that the final application solutions contained 1.25% (v/v) crop oil concentrate.
(§14) Applications were made by injecting with a pipetter appropriate amounts of the application solutions, individually and sequentially, into the aqueous layer of the paddy. Control plants were treated in the same manner with the solvent blank. Applications were made so that all treated plant material received the same concentrations of acetone and crop oil concentrate.
(§15) The treated plants and control plants were placed in a greenhouse as described above and water was added as needed to maintain a paddy flood. […]

Another assay relates to SCPMA. Description: In-water applied (paddy) greenhouse weed control, SCPMA. The assay is classed as in vivo. Particulars: 20 DAA. Here is the method: as §8, §9, §10, §11, §12, §13, §14, §15
In assay [3] the test system is ECHCG. The experiment in a line: Postemergence foliar-applied greenhouse weed control, ECHCG. As to conditions: 20 DAA. The assay is classed as in vivo, Echinochloa crusgalli (L.) Beauv.
Source text: as §1, §2, §3, §4, §5, §6, §7

The subject of a further assay is CYPIR. The experiment in a line: Postemergence foliar-applied greenhouse weed control, CYPIR. Particulars: 20 DAA. The assay is classed as in vivo, Cyperus iria L.
Source text: as §1, §2, §3, §4, §5, §6, §7

For another assay, the system named is DIGSA. The experiment in a line: Postemergence foliar-applied greenhouse weed control, DIGSA. The class given is in vivo, Digitaria sanguinalis (L.) Scop.
Source text: as §1, §2, §3, §4, §5, §6, §7

The next assay relates to ECHOR. The experiment in a line: In-water applied (paddy) greenhouse weed control, ECHOR. The class given is in vivo, Echinochloa oryzoides (Ard.) Fritsch. As to conditions: 20 DAA. Here is the method: as §8, §9, §10, §11, §12, §13, §14, §15
Assay [4] has as its system LEFCH. Description: In-water applied (paddy) greenhouse weed control, LEFCH. As to conditions: 20 DAA. The class given is in vivo, Leptochloa chinensis (L.) Nees. Here is the method: as §8, §9, §10, §11, §12, §13, §14, §15
A further assay concerns IPOHE. The experiment in a line: Postemergence foliar-applied greenhouse weed control, IPOHE. The assay is classed as in vivo, Ipomoea hederacea Jacq.
Source text: as §1, §2, §3, §4, §5, §6, §7

A further assay concerns ECHCO. The experiment in a line: Postemergence foliar-applied greenhouse weed control, ECHCO. The assay is classed as in vivo, Echinochloa colona (L.) Link.
Source text: as §1, §2, §3, §4, §5, §6, §7

Another assay has as its system BRAPP. The experiment in a line: Postemergence foliar-applied greenhouse weed control, BRAPP. The assay is classed as in vivo, Brachiaria platyphylla (Griseb.) Nash. Particulars: 21 DAA.
Source text: as §1, §2, §3, §4, §5, §6, §7

Structures are written as SMILES.

In the case of `COC(=O)C1(O)c2ccccc2-c2ccc(Cl)cc21` (stereo not shown) [Chlorflurenol-Methyl, methyl 2-chloro-9-hydroxy-9H-fluorene-9-carboxylate, reference compound], the “Visual Weed Control (%) Obs” value was 0% in the assay with LEFCH [1] (20 DAA, 68.75 gai/ha); 10% with LEFCH [1] (20 DAA, 137.5 gai/ha); 10% with LEFCH [1] (20 DAA, 275 gai/ha); 15% in the assay with ECHCG [2] (275 gai/ha); 20% in the assay with ECHCG [2] (550 gai/ha); 75% with SCPMA (275 gai/ha). Further, the “Visual Weed Control (%) Obs” value in the assay on SCPMA (550 gai/ha) was 80%; in the assay on ECHCG [3] (68.75 gai/ha), 0%; in the assay with ECHCG [3] (137.5 gai/ha), 0%; with ECHCG [3] (275 gai/ha), 0%; in the assay on CYPIR (68.75 gai/ha) it was 0%; in the assay on CYPIR (137.5 gai/ha) it was 0%. Also, the “Visual Weed Control (%) Obs” value in the assay on CYPIR (275 gai/ha) is listed as 0%; with DIGSA (20 DAA, 68.75 gai/ha) it was 0%; in the assay with DIGSA (20 DAA, 137.5 gai/ha), 0%; with DIGSA (20 DAA, 275 gai/ha), 0%; with ECHOR (275 gai/ha) it was 20%; with ECHOR (550 gai/ha), 10%. Moreover, the “Visual Weed Control (%) Obs” value in the assay on LEFCH [4] (275 gai/ha) amounted to 0%; in the assay with LEFCH [4] (550 gai/ha), 0%; in the assay on IPOHE (20 DAA, 137.5 gai/ha), 50%; in the assay with IPOHE (20 DAA, 275 gai/ha) it was 55%; with ECHCO (20 DAA, 68.75 gai/ha), 0%; in the assay on ECHCO (20 DAA, 137.5 gai/ha), 0%. In the assay with ECHCO (20 DAA, 275 gai/ha), the “Visual Weed Control (%) Obs” value is listed as 0%.
Regarding `C/C(=N\NC(=O)Nc1cc(F)cc(F)c1)c1ncccc1C(=O)O` [Diflufenzopyr, 2-{(E)-1-[4-(3,5-difluorophenyl)-semicarbazono]-ethyl}nicotinic acid], the “Visual Weed Control (%) Obs” value in the assay on LEFCH [1] (21 DAA, 8.75 gai/ha) was 0%; with LEFCH [1] (21 DAA, 17.5 gai/ha) it was 10%; with BRAPP (8.75 gai/ha), 0%; with BRAPP (17.5 gai/ha), 40%; with BRAPP (35 gai/ha) it was 80%; with DIGSA (21 DAA, 17.5 gai/ha) it was 10%. Besides, the “Visual Weed Control (%) Obs” value with DIGSA (21 DAA, 35 gai/ha) stood at 20%; in the assay with IPOHE (21 DAA, 8.75 gai/ha), 75%; in the assay on IPOHE (21 DAA, 17.5 gai/ha) it was 70%; in the assay on ECHCO (21 DAA, 8.75 gai/ha) it was 30%; in the assay on ECHCO (21 DAA, 17.5 gai/ha), 30%; in the assay with ECHCO (21 DAA, 35 gai/ha), 40%.
